One may read the IC50 as the point on the concentration scale where inhibition reaches its midpoint.

The test system of test [1] is advanced glycation end products (AGEs) formation. Nature of the test: Bovine serum albumin-methylglyoxal assay on AGEs formation. Particulars: BSA 50 mg/mL + methylglyoxal 100 mM, 37°C, 24 h; mean ± SEM. In kind it is biochemical. The protocol: Bovine serum albumin (50 mg/mL) was incubated with methylglyoxal (100 mM) in sodium phosphate buffer (0.1 M, pH 7.4) in the presence of various concentrations of the compounds (including a control) at 37°C for 24 h. Then the fluorescent intensity was measured at an excitation wavelength of 355 nm and an emission wavelength of 460 nm with a luminescence spectrometer LS50B (Perkin-Elmer Ltd., Buckinghamshire, England). […] All reagents and samples were sterilized by filtration through […] membrane filters.

A short description of test [2]: DPPH radical scavenging assay. Particulars: for IC50: 15 min incubation in the dark, mean ± SEM; for inhibitory effect on DPPH (in words): at the same concentration when compared to other compounds. Here is the method: The stable free radical, DPPH, was used to determine the free radical scavenging activity of the SHL extracts. Briefly, a 0.32 mM solution of DPPH in methanol was prepared, and then 180 µl of this solution was mixed with 30 µl of each sample (1.0 to 5.0 mg/mL in methanol). After 15 min of incubation in the dark, the decrease in the absorbance of the solution was measured at 570 nm on a microplate reader (EL800 Universal Microplate reader, Bio-Tek instruments, Winooski, VT, USA).
(Loss of DPPH colour is used to gauge radical scavenging.)

Test [3] addresses T1, rat lens aldose reductase (RLAR) (Rattus norvegicus, UniProt P07943).
T1 construct: the supernatant was collected and used as the RLAR; from tissue; host or cells: lens of Sprague-Dawley rats (crude homogenate supernatant)
Nature of the test: In vitro determination of RLAR inhibition (NADPH decrease at 340 nm, DL-glyceraldehyde substrate). Particulars: crude RLAR from Sprague-Dawley rat lenses; mean ± SEM, three independent experiments in duplicate. In kind it is biochemical. The protocol:
Crude RLAR was prepared as follows: lenses […] were removed from Sprague-Dawley rats and frozen at −70°C until use. Noncataractous transparent lenses were pooled and a homogenate was prepared in 0.1 M phosphate buffer saline (pH 6.2). RLAR homogenate was then centrifuged at 9600 ×g for 20 min. After centrifugation in a refrigerated centrifuge, the supernatant was collected and used as the RLAR. All procedures were carried out at 4°C [10].
RLAR activity was assayed spectrophotometrically by measuring the decrease in the absorption of NADPH at 340 nm over a 4 min period using DL-glyceraldehyde as the substrate. Each 1.0 mL cuvette contained equal units of the enzyme, 0.1 M sodium phosphate buffer (pH 6.2), 0.3 mM NADPH, with or without 10 mM of the substrate, and an inhibitor [11].

As for `N=C(N)NN` [Aminoguanidine, aminoguanidine, reference compound], in test [1], the IC50 amounted to 820 ± 79.4 µM and the “IC50 AGEs” value was determined as 90.70 ± 8.71 µg/mL.

`O=C(O)CCc1ccc(O)c(O)c1` [Compound 1, 3-(3,4-dihydroxyphenyl)-propionic acid]: the figures for the 50% inhibitory concentration (IC50) in test [1], in test [2] and in test [3] were 184 ± 17.6 µM, 110 ± 9.39 µM and greater than 1000 µM, respectively.

In the case of `O=C(/C=C/c1ccc(O)c(O)c1)O[C@@H]1C[C@](O)(C(=O)O)C[C@@H](O)[C@H]1O` [Compound 2, chlorogenic acid], the 50% inhibitory concentration (IC50) in test [1] was greater than 1000 µM; in test [3] it was 8.35 ± 0.45 µM.

For `O=C(/C=C/c1ccc(O)c(O)c1)OC[C@H]1O[C@@H](OCCc2ccc(O)c(O)c2)[C@H](O)[C@@H](O)[C@@H]1O` [Compound 4, calceolarioside B], the IC50 in test [1] was greater than 1000 µM; in test [2] it was 94.6 ± 6.86 µM; in test [3], 24 ± 2.3 µM.

For `O=c1cc(-c2ccc(O)c(O[C@@H]3O[C@H](CO)[C@@H](O)[C@H](O)[C@H]3O)c2)oc2cc(O)cc(O)c12` [Compound 5, luteolin-3′-O-β-D-glucopyranoside], the IC50 in test [1] stood at 118 ± 11.5 µM; in test [2] it was 96.3 ± 9.19 µM; in test [3], 7.34 ± 0.35 µM.

For the molecule `O=c1c(O[C@@H]2O[C@H](CO)[C@@H](O)[C@H](O)[C@H]2O)c(-c2ccc(O)c(O)c2)oc2cc(O)cc(O)c12` [Compound 6, quercetin-3-O-β-D-glucopyranoside], the IC50 is greater than 1000 µM in test [1], 122 ± 10.9 µM in test [2] and 10.4 ± 1.38 µM in test [3].

Turning to `O=c1cc(-c2ccc(O)c(O)c2)oc2cc(O[C@@H]3O[C@H](CO)[C@@H](O)[C@H](O)[C@H]3O)cc(O)c12` [Compound 7, luteolin-7-O-β-D-glucopyranoside], the IC50 is greater than 1000 µM in test [1], greater than 1000 µM in test [2] and 16.1 ± 1.2 µM in test [3]. Moreover, the “inhibitory effect on DPPH (in words)” value in test [2] was “no an inhibitory effect”.

As for `O=C1O[C@H]([C@@H](O)CO)C(O)=C1O` [L-ascorbic acid, reference compound], in test [2], the IC50 was determined as 54.4 ± 5.73 µM.

Molecule `O=c1cc(-c2ccc(O)c(O[C@@H]3O[C@H](CO)[C@@H](O)[C@H](O)[C@H]3O)c2)oc2cc(O)cc(O)c12` [luteolin-3′-O-β-D-glucopyranoside] registered a half-maximal inhibitory concentration (IC50) in test [3] of 7.34 to 24 µM.

Molecule `O=c1cc(-c2ccc(O)c(O)c2)oc2cc(O[C@@H]3O[C@H](CO)[C@@H](O)[C@H](O)[C@H]3O)cc(O)c12` [luteolin-7-O-β-D-glucopyranoside] had an IC50 in test [3] of 7.34 to 24 µM.

With `O=c1c(O[C@@H]2O[C@H](CO)[C@@H](O)[C@H](O)[C@H]2O)c(-c2ccc(O)c(O)c2)oc2cc(O)cc(O)c12` [quercetin-3-O-β-D-glucopyranoside], the IC50 in test [3] fell in the range of 7.34 to 24 µM.

As for neochlorogenic acid [Compound 3], the concentration for half-maximal inhibition (IC50) in test [1] was 115 ± 10.5 µM; in test [2], greater than 1000 µM; in test [3], 72 ± 25.8 µM. In test [2], the “inhibitory effect on DPPH (in words)” value is reported as “no an inhibitory effect”.

(Values after publication PMC5343222, “Inhibitory Activities of Stauntonia hexaphylla Leaf Constituents on Rat Lens Aldose Reductase and Formation of Advanced Glycation End Products and Antioxidant” (BioMed Research International, 2017).)
